Data published in patent publication US7741124B2, “Detection procedures for fibrinogen and/or fibrinogen derivatives” (priority 2003, dated 2010).

Assays:
t-PA = test: Stimulation of t-PA by vancomycin-precipitated plasma, plasma system; format: biochemical
Experimental: 25 μl P-Pool were incubated with 25 μl 0-50 mM vancomycin in PBS and 50 μl 1000 IU/ml t-PA in PBS, 0.1% Triton X 100® and 25 μl 0 mM or 15 mM chloramine-T® for 30 min (RT). Then 25 μl 2.7 mM Vai-Leu-Lys-pNA, 1.7 M KCl were added and the resulting plasmin activity was determined by measuring linear absorbance increase/min RT in a microtiterplate reader.

plasmatic fibrinogen = biological target: T1, plasmatic fibrinogen (Homo sapiens, UniProt P02671+P02675+P02679); format: biochemical
T1 construct: pooled patient plasma (P-Pool, n=32 single plasmas); from tissue; host or cells: pooled citrated patient plasma (P-Pool, Fbgen-Pool-Plasma)
T1 sequence (P02671 20-644 isoform P02671-2 limits assumed): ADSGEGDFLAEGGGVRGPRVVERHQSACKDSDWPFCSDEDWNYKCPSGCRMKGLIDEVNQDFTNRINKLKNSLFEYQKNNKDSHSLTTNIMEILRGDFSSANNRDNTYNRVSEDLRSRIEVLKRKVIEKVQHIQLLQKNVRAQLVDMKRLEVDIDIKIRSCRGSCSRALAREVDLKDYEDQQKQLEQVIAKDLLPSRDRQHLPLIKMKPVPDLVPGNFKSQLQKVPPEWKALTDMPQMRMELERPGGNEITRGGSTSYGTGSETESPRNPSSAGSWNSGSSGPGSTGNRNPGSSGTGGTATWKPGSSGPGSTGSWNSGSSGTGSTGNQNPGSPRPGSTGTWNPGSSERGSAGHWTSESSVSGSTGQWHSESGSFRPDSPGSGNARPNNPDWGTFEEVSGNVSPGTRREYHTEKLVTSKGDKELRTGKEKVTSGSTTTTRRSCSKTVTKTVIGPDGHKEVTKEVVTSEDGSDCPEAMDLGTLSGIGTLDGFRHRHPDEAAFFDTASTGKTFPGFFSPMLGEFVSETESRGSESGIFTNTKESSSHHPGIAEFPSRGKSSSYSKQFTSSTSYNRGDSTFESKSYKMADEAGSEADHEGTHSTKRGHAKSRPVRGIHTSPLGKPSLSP
T1 sequence (P02675 31-491): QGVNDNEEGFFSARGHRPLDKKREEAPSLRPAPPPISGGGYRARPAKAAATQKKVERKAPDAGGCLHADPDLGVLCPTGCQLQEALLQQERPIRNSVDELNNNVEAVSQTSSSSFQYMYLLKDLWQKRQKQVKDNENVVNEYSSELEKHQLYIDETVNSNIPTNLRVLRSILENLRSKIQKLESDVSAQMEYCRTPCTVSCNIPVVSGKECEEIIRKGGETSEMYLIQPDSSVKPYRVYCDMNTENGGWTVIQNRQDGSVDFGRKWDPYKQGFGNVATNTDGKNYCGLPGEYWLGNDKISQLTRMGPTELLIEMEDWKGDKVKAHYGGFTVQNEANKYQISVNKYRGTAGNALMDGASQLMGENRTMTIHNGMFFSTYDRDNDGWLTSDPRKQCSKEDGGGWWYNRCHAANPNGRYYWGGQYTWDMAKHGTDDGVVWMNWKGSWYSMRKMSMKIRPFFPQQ
T1 sequence (P02679 27-437 isoform P02679-2 limits assumed): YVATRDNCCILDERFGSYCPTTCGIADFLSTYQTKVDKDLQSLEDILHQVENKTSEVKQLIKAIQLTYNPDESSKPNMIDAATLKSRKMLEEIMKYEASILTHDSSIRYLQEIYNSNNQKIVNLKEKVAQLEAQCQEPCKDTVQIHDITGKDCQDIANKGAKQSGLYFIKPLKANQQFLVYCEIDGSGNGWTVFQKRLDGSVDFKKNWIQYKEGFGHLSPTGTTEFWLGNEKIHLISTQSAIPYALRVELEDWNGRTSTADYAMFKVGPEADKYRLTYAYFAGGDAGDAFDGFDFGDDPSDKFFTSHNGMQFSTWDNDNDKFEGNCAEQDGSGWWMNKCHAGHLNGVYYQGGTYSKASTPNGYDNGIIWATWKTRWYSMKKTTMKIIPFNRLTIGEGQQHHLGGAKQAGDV
Experimental: 25 μl of 143% (4.0 g/l) P-Pool were incubated with 25 μl 0-50 mM vancomycin in PBS, 50 μl PBS, 0.1% Triton X 100® and 50 μl 850 mM KCl in H2O for 1 min (RT). The turbidity at 405 nm was determined. […] For pH-studies 5 ml P-Pool were mixed with 5 ml PBS and 0-1750 μl 1 M NaHCO3, pH 8.6.
5 ml P-Pool were incubated with 5 ml 4.4 mM vancomycin in PBS for 3 min (RT). Then the reaction mixture was centrifuged at 2500 g (4000 rpm) for 10 min. The supernatant was separated from the precipitate. The precipitate was not washed or was washed 3× with dest. H2O (resuspension, centrifugation, resuspension, . . . ). The unwashed precipitate was solubilized by addition of 500 μl 1 M NaHCO3, pH 8.6, and 4500 μl PBS; the washed precipitate was solubilized by addition of 300 μl 1 M NaHCO3 to 1700 μl in dest. H2O resuspended precipitate. 3 preparations of washed precipitate were also dried at room temperature and the dried precipitates were weighed. The solubilized precipitate and the supernatant were functionally analyzed for fibrinogen. 100 μl 1 M NaHCO3, pH 8.6 were added to 400 μl of the solubilized unwashed precipitate and this solution, the solubilized washed precipitate and the supernatant were analyzed for total protein, albumin concentration, and pseudocholinesterase activity in a Hitachi 917 analyzer, Roche, Basel, Switzerland and for vancomycin in an Integra 800 (Fluorescence Polarisation Immuno Assay); electrophoreses were performed in an agarose gel-based Hydrasis LC-Electrophoresis system (Sebia, Fulda, Germany). For control, 1 ml pooled serum was incubated with 1 ml 4.4 mM vancomycin in PBS, and the vancomycin conc. was determined.

[1] = after 1+1 incubation with 4.4 mM vancomycin in PBS

## CN[C@H](CC(C)C)C(=O)N[C@H]1C(=O)N[C@@H](CC(N)=O)C(=O)N[C@H]2C(=O)N[C@H]3C(=O)N[C@H](C(=O)N[C@H](C(=O)O)c4cc(O)cc(O)c4-c4cc3ccc4O)[C@H](O)c3ccc(c(Cl)c3)Oc3cc2cc(c3O[C@@H]2O[C@H](CO)[C@@H](O)[C@H](O)[C@H]2O[C@H]2C[C@](C)(N)[C@H](O)[C@H](C)O2)Oc2ccc(cc2Cl)[C@H]1O [vancomycin]
t-PA; 1 part plasma with 1 part 1.5-5 mM vancomycin, oxidation with 1 part 15 mM chloramine-T
  stimulation of t-PA: up to 20 fold
t-PA; without oxidation, 2 mM vancomycin, final incubation 158 min (RT)
  increase of t-PA activity: 2.5 fold
Plasmatic fibrinogen; 4.4 mM vancomycin
  fibrinogen precipitated: 84%
  fibrinogen remained in the plasma: 16%
Plasmatic fibrinogen; 4.4 mM vancomycin, corrected for 1+1 dilution
  fibrinogen remained of initial 4.0 g/l: 0.64 g/L
Plasmatic fibrinogen; 1 part plasma and 1 part 4.4 mM vancomycin in PBS
  fibrinogen conc. in the supernatant: 0.32 g/L
Plasmatic fibrinogen; 25 μl 0-50 mM vancomycin, 25 μl P-Pool, 1 min RT
  increase of turbidity of citrated plasma: up to 20 fold
Plasmatic fibrinogen; [1]
  vancomycin found in pooled serum: 2.1 mM
  vancomycin found in supernatant of pooled plasma: 0.17 mM
Plasmatic fibrinogen; of 2.2 mM vancomycin in the reaction mixture
  vancomycin attached to 5 μM precipitating fibrinogen: 80 µM
Plasmatic fibrinogen; washed precipitate
  vancomycin molecules/fibrinogen molecule: 16
